The source of these data is US7361637B2, “Hypotensors” (Protein Express Co., Ltd., priority 2000, dated 2008).

Values joined by “and” are separate entries in the source; they are usually repeats but may differ in a detail not shown here. Equal values may be shown once.

What all share (type): in vivo, rat
For one assay, the system named is SHR male rats. The assay is described as follows: Hypotensive effect: blood pressure by carotid cannula and pressure transducer after administration to SHR. As to conditions: for duration of the hypotensive effect from the administration / sustained hypotension at the highest: 1 mg/kg via cannula from external carotid artery. How it is done: A group comprising three SHR male rats (12˜14 weeks age; body weight: 258˜310 g) that are pathological model animals of hypertension was used. Ab mix prepared in Example 1, P mix prepared in Example 2 and dissolved in a physiological saline, and anti-renin neutralizing antibody and captopril, which were the drugs used for comparative study, were intravenously administered at the dose of 0.44 mg/kg, 0.6 mg/kg, 0.12 mg/kg and 100 mg/kg, respectively. Measurement of blood pressure was carried out in such a manner that a cannula inserted into common carotid artery and external carotid artery was connected to a pressure transducer (P23XL; Gould Electronics) and introduced into a pressure processor signal conditioner (Gould Electronics), followed by carrying out measurement every ten minutes until 1 hour from administration of the test substance and every one hour thereafter and the data were recorded on a thermal array recorder (RS 3400; Gould Electronics). […]
A test was carried out for p 1 (pf 1-11), p 2 (pf 5-19) and p 3 (pf 27-41) prepared in Example 2 in the same manner as in Experimental Example 1 using 2 or 4 cases of SHR. The result was that, in the case of administration of 2 mg/kg of p 1, a transient hypertensive action of around 6% was noted immediately after administration, that recovered after 5 minutes from administration, then a hypotensive gradually took place thereafter to an extent of 6% at the highest and a sustained effect was confirmed until 24th hour. […] In the case of administration of 2 mg/kg of p 2, a transient hypotension of around 35% was noted immediately after administration, it recovered at 5 minutes after administration and, after that, a sustained hypotensive action was confirmed until 24th hour to an extent of around 6% at the highest. […] In the case of administration of 10 mg/kg, a hypotension of 7% was noted after 2 hours and, until 24th hour, a sustained hypotensive action where 11% was the highest was confirmed. […]

For assay [1], the system named is SHR. The assay is described as follows: Weight of heart and kidney after 14 days of administration to SHR. As to conditions: 1.6 mg/kg intravenously once daily for 14 days. How it is done: The p 1c (pf 5-11) prepared in Example 2 was intravenously administered once daily for consecutive 14 days at the dose of 1.6 mg/kg to a group comprising 4 SHRs. On the 14th day, the rats were killed by bleeding, followed by excising heart and kidney to measure their weights. The result is shown in Table 1 in terms of weight of the organ per 100 g of body weight.

In assay [2] the test system is SHR. In words: Weight of arteries after 14 days of administration to SHR. As to conditions: 1.6 mg/kg intravenously once daily for 14 days. How it is done:
The p 1c (pf 5-11) prepared in Example 2 was intravenously administered once daily for consecutive 14 days at the dose of 1.6 mg/kg to a group comprising 4 SHRs. On the 14th day, the rats were killed by bleeding, followed by excising heart and kidney to measure their weights. The result is shown in Table 1 in terms of weight of the organ per 100 g of body weight. […] Weight of each artery was calculated in terms of weight per each area, followed by further converting the calculated value into the value per body weight of each rat and the results were compared and shown in Table 2.

Regarding “p 2b: rat prorenin profragment peptide pf 11-15 (SEQ ID NO: 14) (ILLKK; listed as Rattus norvegicus)”, in the assay on SHR male rats (SHR, 1 mg/kg intravenously), the “sustained hypotension at the highest until 24 hours” value was “The same effect was achieved”.

Regarding “p 1: rat prorenin profragment peptide pf 1-11 (SEQ ID NO: 9) (LPTDTASFGRI; listed as Rattus norvegicus)”, the “transient hypertension immediately after administration” value (from here on “transient hypertension immediately”) in the assay on SHR male rats (SHR, 2 mg/kg intravenously) was “around 6%”. Also, the “sustained hypotension at the highest after recovery of the transient change” value in the assay with SHR male rats (SHR, 2 mg/kg intravenously, until 24th hour) was 6%. The “hypotension at 6 hours after administration” value in the assay with SHR male rats (SHR, 10 mg/kg intravenously) is given as “about 7%”.

Take “p 1b: rat prorenin profragment peptide pf 1-7 (SEQ ID NO: 11) (LPTDTAS; listed as Rattus norvegicus)”: in the assay on SHR male rats (SHR, 10 mg/kg intravenously), the “sustained hypotension at the highest until 24th hour” value came to 13% and the “transient hypertension immediately” value is given as 17%.

As for “D-His-Pro-Phe-His-Leu-ψ-[CH2NH]-Leu-Val-Tyr [H 6137, reference compound]”, the “duration of the hypotensive effect from the administration” value in the assay on SHR male rats was “tendency of disappearance of the effect”. The “sustained hypotension at the highest” value in the assay with SHR male rats (at 3~8 hours after administration) stood at 9%.

Take “p 2a: rat prorenin profragment peptide pf 12-19 (SEQ ID NO: 13) (LLKKMPSV; listed as Rattus norvegicus)”: in the assay with SHR male rats, the “duration of the hypotensive effect from the administration” value is at least 12 h. Moreover, in the assay on SHR male rats (at 5~8 hours after administration), the “sustained hypotension at the highest” value stood at 11%. Also, in the assay on SHR male rats (SHR, 1 mg/kg intravenously), the “sustained hypotension at the highest until 24 hours” value was 14% and the “transient hypertension immediately” value stood at 6%.

On to `C[C@H](CS)C(=O)N1CCC[C@H]1C(=O)O` [captopril, reference compound], for which, in the assay on SHR male rats (SHR, 100 mg/kg intravenously), the “hypotensive action at the 24th hour (completion of the experiment)” value is on record as “no hypotensive action was noted” and the “maximum hypotension (at the highest) until the 6th hour from the administration” value is reported as 31%.

For “p 1a: rat prorenin profragment peptide pf 1-4 (SEQ ID NO: 10) (LPTD; listed as Rattus norvegicus)”, in the assay on SHR male rats (SHR, 10 mg/kg intravenously), the “sustained hypotension at the highest until 24th hour” value worked out at 13% and the “transient hypertension immediately” value is 13%.

“p 1c: rat prorenin profragment peptide pf 5-11 (SEQ ID NO: 12) (TASFGRI; listed as Rattus norvegicus)”: in the assay with SHR male rats (SHR, 10 mg/kg intravenously), the “sustained hypotension at the highest until 24th hour” value was 16% and the “transient hypertension immediately” value came to 21%. In the assay with SHR [1], this compound displayed a Weight of Organ, Heart, Mean Value of 0.39 g/100 g body weight; a Weight of Organ, Left Kidney, Mean Value of 0.35 g/100 g body weight; a Weight of Organ, Right Kidney, Mean Value of 0.34 g/100 g body weight. Moreover, in the assay on SHR [1] (1.6 mg/kg), the Weight of Organ, Heart, individual rats was 0.37 g/100 g body weight and 0.4 g/100 g body weight (2×) and 0.39 g/100 g body weight; the Weight of Organ, Left Kidney, individual rats is 0.34 g/100 g body weight and 0.35 g/100 g body weight (3×); the Weight of Organ, Right Kidney, individual rats is 0.34 g/100 g body weight and 0.35 g/100 g body weight (2×) and 0.33 g/100 g body weight. In the assay on SHR [1] (compared with physiological saline), the “effect on hypertrophy of heart and kidney” value is “suppresses hypertrophy of heart and kidney”. Moreover, in the assay on SHR [2], the “Weight of Artery, Femoral Artery, Mean Value” is reported as 0.00089 mg/mm^2/g body weight; the “Weight of Artery, Pulmonary Artery, Mean Value” is on record as 0.00081 mg/mm^2/g body weight; the “Weight of Artery, Superior Mesenteric Artery, Mean Value” came out at 0.00096 mg/mm^2/g body weight. In the assay with SHR [2] (1.6 mg/kg), the “Weight of Artery, Femoral Artery, individual rats” value is 0.00068 mg/mm^2/g body weight and 0.00094 mg/mm^2/g body weight and 0.00106 mg/mm^2/g body weight and 0.00087 mg/mm^2/g body weight; the “Weight of Artery, Pulmonary Artery, individual rats” value is 0.00067 mg/mm^2/g body weight and 0.00087 mg/mm^2/g body weight and 0.00088 mg/mm^2/g body weight and 0.00082 mg/mm^2/g body weight; the “Weight of Artery, Superior Mesenteric Artery, individual rats” value was 0.00094 mg/mm^2/g body weight and 0.00095 mg/mm^2/g body weight and 0.00096 mg/mm^2/g body weight and 0.001 mg/mm^2/g body weight. In addition, the “effect on thickening of artery (remodeling of blood vessel)” value with SHR [2] (compared with control group) is given as “suppresses the thickening of artery”.
